# Experimental data taken from patent US20070276034A1, “Compounds, compositions and methods for the treatment of synucleinopathies” (priority 2002, published 2007).
# How the values were obtained:
# [1] = test system: BE-M17 human neuroblastoma cells overexpressing A53T α-synuclein; assay: Thioflavin S aggregation assay in rotenone-treated cells; format: cell-based; settings: 500 nM, 1 μM or 5 μM rotenone (FIGS. 4A-E)
# Excerpt: (§1) Therefore, to test the therapeutic potential of the compounds, two cell-based assays were utilized. In both assays, rotenone is used to induce mitochondrial oxidative stress and α-synuclein aggregation. The first assay utilizes the binding of the fluorescent dye thioflavin S to structures with high β-sheet content including α-synuclein fibrils. Therefore, quantitative assessment of the extent of thioflavin S-positive staining of fixed cells is used to test the ability of the compounds to decrease the amount of α-synuclein aggregates. In the second assay, cell viability is assessed using the XTT Cytotoxicity assay, which is dependent on intact, functional mitochondria in live cells. Thus, the XTT Cytotoxicity assay is used to test the ability of the compounds to ameliorate the mitochondrial toxicity and resulting loss of viability associated with the accumulation of α-synuclein aggregates. Phrased another way, the XTT Cytotoxicity assay is used to gauge the compounds neuroprotective efficacy. These studies are presented in the following examples.
# (§2) BE-M17 human neuroblastoma cells stably transfected with A53T-mutant human α-synuclein were obtained. Cell culture reagents were obtained from Gibco/Invitrogen, and cells were grown in OPTIMEM supplemented with 10% FBS, Penicillin (100 units/mil)-Streptomycin (100 μg/ml) and 500 μg/ml G418 as previously described (Ostrerova-Golts et al., J. Neurosci., 20:6048-6054, 2000).
# Thioflavin S is commonly used to detect amyloid-containing structures in situ, including in brain tissue (Vallet et al., Acta Neuropathol., 83:170-178, 1992), and cultured cells (Ostrerova-Golts et al., J. Neurosci., 20:6048-6054, 2000), whereas thioflavin T is often used as an in vitro reagent to analyze the aggregation of soluble amyloid proteins into fibrils enriched in β-pleated sheet structures (LeVine III, Prot. Sci., 2:404-410, 1993). Therefore, Thioflavin S histochemistry was used on cultured cells to detect aggregates containing a high degree of […] structures that formed in response to oxidative stress-inducing agents (in this case rotenone) as previously described, with minor modifications (Ostrerova-Golts et al., J. Neurosci, 20:6048-6054, 2000). Briefly, for these studies, cells were grown on Poly-D-Lysine coated glass slide chambers at approximately 3×10^4 cells/cm^2. After 24 hours, cells were treated with 500 nM, 1 μM or 5 μM rotenone (Sigma) or vehicle (0.05% DMSO) as indicated. Immediately after rotenone (or vehicle) addition, compounds were added at the indicated concentration, or cell culture media only (no compound) in the presence of rotenone was added. Identical treatments were repeated after 48 hours. After an additional 48 hours, cells were fixed for 25 minutes in 3% paraformaldehyde. After a PBS wash, the cells were incubated with 0.015% thioflavin S in 50% ethanol for 25 minutes, washed twice for four minutes in 50% ethanol and twice for five minutes in deionized water and then mounted using an aqueous-based mountant designed to protect against photobleaching. Aggregates that bind to thioflavin S were detected with a fluorescent microscope using a High Q FITC filter set (480 to 535 nm bandwidth) and a 20× objective lens unless otherwise indicated. Between 8 and 16 representative images per condition were selected, imaged and processed by an experimenter who was blinded to treatment conditions. To assess the amount of thioflavin S-positive aggregates, the total area per field covered by thioflavin S-positive inclusions was determined. […] Spurious, non-cell associated fluorescence was manually removed. Unless indicated otherwise, data represent group means ±SEM. Statistical analyses were performed with GraphPad Prism (GraphPad Inc). Differences between means (two samples) were assessed by the […]. Differences among multiple means were assessed by one-factor ANOVA followed by Tukey's multiple comparison test.
# [2] = test system: A53T α-synuclein-expressing BE-M17 cells; assay: XTT Cytotoxicity assay - protection against rotenone-induced cytotoxicity; format: cell-based; settings: 40-44 hours
# Excerpt: as §1, §2
# Research has shown that the accumulation of α-synuclein fibrils in Lewy bodies contributes mechanistically to the degradation of neurons in Parkinson's disease and related disorders (Polymeropoulos et al., Science 276:2045-2047, 1997; Kruger et al., Nature Genet. 18:106-108, 1998). Here, the XTT Cytotoxicity assay (hereafter referred to as the XTT assay) was used to measure the ability of test compounds to protect against rotenone-induced cytotoxicity (neuroprotective ability). The assay is based on the principle that conversion of the yellow tetrazolium salt XTT to form an orange formazan dye (that absorbs light around 490 nm) occurs only in metabolically active, viable cells. Therefore, light absorbance at 490 nm is proportional to cell viability. For this assay, cells were plated in 96 well tissue culture dishes at 10^4 cells per well. After 24 hours, cells were treated with 500 nM or 2 μM rotenone, or vehicle (0.05% DMSO) as indicated. Immediately after rotenone addition, compounds were added at the indicated concentration. […] Untreated cells received cell culture media only (no compound, with or without rotenone). After 40-44 hours of treatment, conditioned media was removed and replaced with 100 μl fresh media and 50 μl XTT labeling reaction mixture according to the manufacturer's recommendations. Four to five hours later, the absorbance at 490 nm was measured and corrected for absorbance at the 700 nm reference wavelength. […] Percent inhibition of cell death was calculated as the proportion of the rotenone-induced absorbance (viability) decrease that was eliminated by test compound treatment.
compound,measurement,setting,value
"C=C(C)[C@H]1Cc2c(ccc3c2O[C@@H]2COc4cc(OC)c(OC)cc4[C@@H]2C3=O)O1 [rotenone, reference compound]",thioflavin S-positive aggregates relative to vehicle-treated control cells,[1],dose-dependent increase in thioflavin S-positive aggregates
same,decrease of viability relative to untreated cells,[2]; 500 nM rotenone,30-40%
same,decrease of viability relative to untreated cells,[2]; 2 μM rotenone,40-50%
